{
  "source": "patent EP0993306B1",
  "about": "“PERFLUOROALKYLATED OLIGOMER COMPOUNDS, PROCESS FOR PREPARING THE SAME AND THEIR USE IN NMR DIAGNOSIS” (SCHERING AKTIENGESELLSCHAFT, priority 1997, dated 1999)",
  "key": {"[1]": {"assay": "T1 relaxivity in human plasma (Minispec pc 20)", "format": "physicochemical", "conditions": "for R^1 (T^1-Relaxivity): 0.47 T, 20 MHz, 37 °C, Humanplasma, normalised to one metal atom"}, "[2]": {"assay": "Lymph node accumulation in stimulated guinea pigs after s.c. administration (ICP-AES)", "format": "in vivo, Meerschweinchen", "conditions": "10 µmol/kg s.c. hind paw, MW ± SD, n=3", "source_text": "Die erfindungsgemäßen Verbindungen erfüllen alle Voraussetzungen, die von Kontrastmitteln in der indirekten NMR-Lymphographie verlangt werden: gute lokale Verträglichkeit, rascher Abtransport vom Injektionsort, rasche und weitestgehend vollständige Ausscheidung aus dem Gesamtorganismus. Ferner zeigen sie eine hohe Anreicherung über mehrere Lymphknotenstationen und erlauben damit relevante diagnostische Aussagen. So konnte am Meerschweinchenmodell eine hohe Anreicherung über mehrere Lymphknotenstationen (popliteal, inguinal, iliakal) nach s.c. Gabe (2,5-10 µmol/kg Körpergewicht, Injektion in Zwischenzehenräume der Hinterpfote) gezeigt werden. In besonders geeigneten Fällen wurden so in der zweiten (inguinal) und dritten (iliakal) Station noch Gadoliniumkonzentrationen von jeweils ≥ 200 bzw. ≥ 300 µmol/l erhalten. Üblicherweise sind mit den erfindungsgemäßen Verbindungen Lymphknotenkonzentrationen bis zu 1000 µmol/l zu erhalten.\nDer Gadolinium-Komplex des Beispiels 19 wurde 30 Min./ 90 Min. nach subkutaner Gabe (10 µmol Gesamtgadolinium/kg KG, Hinterpfote s.c.) an stimulierten Meerschweinchen (komplettes Freund-Adjuvant; jeweils 0,1 ml i.m. in den rechten und linken Ober- und Unterschenkel; 2 Wochen vor Gabe der Prüfsubstanz) hinsichtlich ihrer Lymphknotenanreicherung in drei aufeinanderfolgenden Lymphknotenstationen (popliteal, inguinal, iliakal) untersucht. Hierbei wurden die nachfolgend aufgelisteten Ergebnisse (Ermittlung der Gadolinium-Konzentration mittels ICP-AES) erhalten: […]"}, "[3]": {"assay": "Retention of the contrast metal at the injection site (paw)", "format": "in vivo, Meerschweinchen", "conditions": "10 µmol/kg interstitial, MW ± SD, n=3", "source_text": "Nach s.c. Gabe von 10 µmol Gesamtgadolinium (Beispiel 19)/kg Körpergewicht in die Meerschweinchenpfote wurde die Retention des Metalls am Injektionsort zu verschiedenen Zeitpunkten untersucht."}, "[4]": {"conditions": "rat, in vivo, iv, 100 umol/kg", "from_the_text": "Hierfür wurde nach einmaliger intravenöser Applikation (via einer Caudalvene) der Substanzen (Dosis: ≈ 100 µmol Metall pro kg Körpergewicht) die Substanzkonzentration im Blut (basierend auf dem Gd- bzw. Dy-Gehalt) über einen Zeitraum bis zu 120 Minuten p. i. mittels ICP-AES bestimmt. Die pharmakokinetischen Parameter: Verteilungsvolumen (Vss), Gesamtclearance (CLtot) und Eliminationshalbwertszeit (tb) wurden mit einem speziellen Computerprogramm (TOPFIT 2.0; Thomae, Schering, Gödecke) berechnet, wobei ein Zwei-Kompartment-Distributionsmodell zu Grunde gelegt wurde.\nDie Gd- und Dy-Gehalte im Blut wurden mittels ICP-AES bestimmt.\nHierfür wurde nach einmaliger intravenöser Applikation (via einer Caudalvene) der Substanzen (Dosis: ≈ 100 µmol Metall pro kg Körpergewicht) die Substanzkonzentration im Blut (basierend auf dem Metallgehalt) über einen Zeitraum bis zu 120 Minuten p. i. mittels ICP-AES bestimmt. Die pharmakokinetischen Parameter: Verteilungsvolumen (Vss), Gesamtclearance (CLtot) und Eliminationshalbwertszeit (tb) wurden mit einem speziellen Computerprogramm (TOPFIT 2.0; Thomae, Schering, Gödecke) berechnet, wobei ein Zwei-Kompartment-Distributionsmodell zu Grunde gelegt wurde."}, "[5]": {"assay": "Excretion after s.c. administration: metal retention in liver, kidneys, spleen", "format": "in vivo, Meerschweinchen", "conditions": "10 µmol/kg interstitial, MW ± SD, n=2", "source_text": "Nach subkutaner Gabe von 10 µmol Gesamtgadolinium (Beispiel 19) /kg Körpergewicht in die Hinterpfote des Meerschweines wurde 7 Tage nach Applikation die Retention des Metalls in der Leber, in den Nieren sowie in der Milz untersucht."}, "[6]": {"conditions": "39 °C, 0,47 T; cited from earlier work"}, "[7]": {"assay": "Diffusibility: in vivo comparison with an intravasal and an extracellular contrast agent, ligated renal vessels", "conditions": "i.v. 20 µmol/kg each, ligated renal vessels, relative to Verbindung 2 set as 100 %", "procedure": "(§1) Als Versuchstiere dienten drei 250 g schwere, männliche (Schering-SPF-) Ratten. Den Tieren wurden die Nierengefäße abgebunden, um eine renale Eliminierung zu verhindern und bei angenommener vernachlässigbarer faekaler Eliminierung ein Maß für Diffusibilität der erfindungsgemäßen Formulierung aus dem Blut in das umgebende Gewebe zu erhalten. Je Tier wurden 0.5 ml (jeweils 10 mmol/L) der folgenden Kontrastmittel-Lösung intravenös appliziert: Gemisch aus je 1 Teil der Verbindung des Beispiels 1g, im folgenden Verbindung 1 genannt, des intravasalen Kontrastmittels Eu-DTPA-Albumin, im folgenden Verbindung 2 genannt, und des extrazellulären Kontrastmittels Dy-DTPA, im folgenden Verbindung 3 genannt. Über einen Katheter in der Arteria carotis communis wurden Blutproben zu folgenden Zeitpunkten entnommen: 15, 30, 45, 60, 90 sec, 3, 5, 10, 15 min p.i. In den gewonnenen Blutproben wurden jeweils parallel die Konzentrationen an Gadolinium (Gd), Europium (Eu) und Dysprosium (Dy) mittels Atomemissionsspektrometrie (ICP-AES) gemessen. Der im Blutraum verbliebene Anteil des intravasalen Kontrastmittels Verbindung 2 (Eu) wurde als 100 % gesetzt. Der im Blutraum verbliebene Anteil der erfindungsgemäßen Formulierung Verbindung 1 (Gd) und der Verbindung 3 (Dy, extrazelluläre Vergleichssubstanz) konnte durch die unterschiedliche Markierung im gleichen Tier verglichen werden und wurde prozentual ins Verhältnis zur Konzentration der Verbindung 2 gesetzt. Damit liefern diese Daten Angaben über den Verbleib der Verbindungen im Intravasalraum."}, "[8]": {"assay": "Diffusibility: in vivo comparison with an intravasal and an extracellular contrast agent, ligated renal vessels", "set-up": "species or system Ratte", "conditions": "i.v. 20 µmol/kg each, relative to Verbindung 2 set as 100 %", "procedure": "as §1"}},
  "data": [
    {"molecule": "1,4,7-Tris(N-3,3,6-tris(carboxylatomethyl)-6-[N-3-aza-2,5-dioxo-pentan-1,5-diyl]-3,6,9-triazaundecan-1,11-disäure, Gd-Komplex, Mononatriumsalz}-10-2H,2H,4H,4H,5H,5H-3-oxa-perfluor-tridecanoyl)-1,4,7,10-tetraazacyclododecan [Beispiel 8 b)]", "values": [
      {"measurement": "R^1 (T^1-Relaxivity)", "setting": "[1]", "result": "20,6 L/mmol * sec"}
    ]},
    {"molecule": "1,4,7-Tris{1,4,7-tris-(N-carboxylatomethyl)-10-[N-(4,7-diaza-3,6,9-trioxo)-nonan-2,9-diyl]-1,4,7,10-tetraazacyclododecan, Gd-Komplex-10-(N-22F,22F,22F,21F,21F, 20F,20F,19F, 19F, 18F, 18F, 17F,17F, 16F, 16F, 15F, 15F-heptadecafluor-12-oxadocosanoyl)-1,4,7,10-tetraazacyclododecan [Beispiel 14 e)]", "values": [
      {"measurement": "R^1 (T^1-Relaxivity)", "setting": "[1]", "result": "19,3 L/mmol * sec"}
    ]},
    {"molecule": "1,4,7-Tris{N-3,9-bis(carboxylatomethyl)-6-[N-3-aza-2,5-dioxo-pentan-1,5-diyl]-3,6,9-triazaundecan-1-carboxylato-11-säure, Gd-Komplex, Natriumsalz}-10-[Nacetyl-(2-amino-N-ethyl-N-perfluoroctylsulfonyl)]-1,4,7,10-tetraazacyclododecan [Beispiel 18 d)]", "values": [
      {"measurement": "R^1 (T^1-Relaxivity)", "setting": "[1]", "result": "23,0 L/mmol * sec"}
    ]},
    {"molecule": "1,4,7-Tris{N-[3,9-bis{N-carboxylatomethyl)]-6-[N-{3-aza-2,5-dioxo-pentan)-1,5-diyl]-3,6,9-triazaundecan-1-carboxylato-11-säure, Gd-Komplex, Mononatriumsalz}-10-N-{undecanoyl-〈11-amino-N-[acetyl-(2-amino-N-ethyl-N-perfluoroctylsulfonyl)]) }-1,4,7,10-tetraazacyclododecan [Beispiel 25 f)]", "values": [
      {"measurement": "R^1 (T^1-Relaxivity)", "setting": "[1]", "result": "15,1 L/mmol * sec"}
    ]},
    {"molecule": "1,4,7-Tris{N-hexanoyl-2,6-bis〈*amino-N-acetyl-2-[3,9-bis(N-carboxylato-methyl)-6-yl-3,6,9-triazaundecan-1-carboxylato-11-säure, Gd-Komplex, Mononatriumsalz]〉}-10-[N-acetyl-(2-amino-N-ethyl-N-perfluoroctylsulfonyl)]-1,4,7,10-tetraazacyclododecan [Beispiel 26 d)]", "values": [
      {"measurement": "R^1 (T^1-Relaxivity)", "setting": "[1]", "result": "13,0 L/mmol * sec"}
    ]},
    {"molecule": "1,4,7-Tris{N-hexanoyl-2,6-bis〈amino-N-acetyl-2-[aminopropanoyl-(2-yl)]-[1,4,7-tris(Ncarboxylatomethyl)-1,4,7,10-tetraazacyclododecan-10-yl, Gd-Komplex]〉}-10-[N-acetyl-(2-amino-N-ethyl-N-perfluoroctylsulfonyl)]-1,4,7,10-tetraazacyclododecan [Beispiel 27]", "values": [
      {"measurement": "R^1 (T^1-Relaxivity)", "setting": "[1]", "result": "16,1 L/mmol * sec"}
    ]},
    {"molecule": "CCN(CC(=O)N1CCN(C(=O)CNC(=O)CNC(=O)C(C)N2CCN(CC(=O)[O-])CCN(CC(=O)[O-])CCN(CC(=O)[O-])CC2)CCN(C(=O)CNC(=O)CNC(=O)C(C)N2CCN(CC(=O)[O-])CCN(CC(=O)[O-])CCN(CC(=O)[O-])CC2)CCN(C(=O)CNC(=O)CNC(=O)C(C)N2CCN(CC(=O)[O-])CCN(CC(=O)[O-])CCN(CC(=O)[O-])CC2)CC1)S(=O)(=O)C(F)(F)C(F)(F)C(F)(F)C(F)(F)C(F)(F)C(F)(F)C(F)(F)C(F)(F)F.[Gd+3].[Gd+3].[Gd+3]", "note": "(centres unmarked) [Beispiel 19, 1,4,7-Tris{1,4,7-tris(N-carboxylatomethyl)-10-[N-(4,7-diaza-3,6,9-trioxo)-nonan-2,9-diyl]-1,4,7,10-tetraazacyclododecan, Gd-Komplex}-10-[N-acetyl-(2-amino-N-ethyl-N-perfluor-octylsulfonyl)]-1,4,7,10-tetraazacyclododecan]", "values": [
      {"measurement": "Gd-Konzentration, Blut", "setting": "[2]; 30 min p.i.", "result": "24 ± 3", "unit": "µmol/L"},
      {"measurement": "Gd-Konzentration, Lymphknoten iliakal", "setting": "[2]; 30 min p.i.", "result": "50 ± 18", "unit": "µmol/L"},
      {"measurement": "Gd-Konzentration, Lymphknoten inguinal profund", "setting": "[2]; 30 min p.i.", "result": "43 ± 41", "unit": "µmol/L"},
      {"measurement": "Gd-Konzentration, Lymphknoten popliteal", "setting": "[2]; 30 min p.i.", "result": "345 ± 319", "unit": "µmol/L"},
      {"measurement": "Gd-Konzentration, Urin", "setting": "[2]; 30 min p.i.", "result": "261 ± 167", "unit": "µmol/L"},
      {"measurement": "Gd-Konzentration, Blut", "setting": "[2]; 90 min p.i.", "result": "25 ± 4", "unit": "µmol/L"},
      {"measurement": "Gd-Konzentration, Lymphknoten iliakal", "setting": "[2]; 90 min p.i.", "result": "20 ± 8", "unit": "µmol/L"},
      {"measurement": "Gd-Konzentration, Lymphknoten inguinal profund", "setting": "[2]; 90 min p.i.", "result": "9 ± 2", "unit": "µmol/L"},
      {"measurement": "Gd-Konzentration, Lymphknoten popliteal", "setting": "[2]; 90 min p.i.", "result": "75 ± 20", "unit": "µmol/L"},
      {"measurement": "Gd-Konzentration, Urin", "setting": "[2]; 90 min p.i.", "result": "348 ± 119", "unit": "µmol/L"},
      {"measurement": "Gadolinium-Konzentration an der Injektionsstelle (Pfote)", "setting": "[3]; 30 min p.i.", "result": "48,4 ± 10,4 % Dosis"},
      {"measurement": "Gadolinium-Konzentration an der Injektionsstelle (Pfote)", "setting": "[3]; 90 min p.i.", "result": "8,0 ± 1,7 % Dosis"},
      {"measurement": "Gadolinium-Konzentration an der Injektionsstelle (Pfote)", "setting": "[3]; 7 d p.i.", "result": "0,7 ± 0,6 % Dosis"},
      {"measurement": "R^1 (T^1-Relaxivity)", "setting": "[1]", "result": "21,4 L/mmol * sec"},
      {"measurement": "Relaxivity (r1, Plasma)", "setting": "[1]; plasma", "result": "≈ 19.5 1*mmol^- ^1*s^-1"},
      {"measurement": "CL tot", "setting": "[4]", "result": 0.94, "unit": "mL/min/kg"},
      {"measurement": "Vss", "setting": "[4]", "result": 0.12, "unit": "L/kg"},
      {"measurement": "Gadolinium-Gehalt in den Organen 7 d p.i., Leber", "setting": "[5]", "result": "0.09 ± 0.09", "unit": "% Dosis"},
      {"measurement": "Gadolinium-Gehalt in den Organen 7 d p.i., Milz", "setting": "[5]", "result": "0.00 ± 0.01", "unit": "% Dosis"},
      {"measurement": "Gadolinium-Gehalt in den Organen 7 d p.i., Nieren", "setting": "[5]", "result": "0.06 ± 0.04", "unit": "% Dosis"}
    ]},
    {"molecule": "C[NH2+]C[C@@H](O)[C@@H](O)[C@H](O)[C@@H](O)CO.C[NH2+]C[C@@H](O)[C@@H](O)[C@H](O)[C@@H](O)CO.O=C([O-])CN(CCN(CC(=O)[O-])CC(=O)[O-])CCN(CC(=O)[O-])CC(=O)[O-].[Gd+3]", "note": "[Magnevist ®, Di-N-methylglucaminsalz des Gd-DTPA-Komplexes, reference compound]", "values": [
      {"measurement": "R^1 (T^1-Relaxivity)", "setting": "[1]", "result": "4,8 L/mmol * sec"},
      {"measurement": "T^1-Relaxivity", "setting": "[6]", "result": "3,5 - 4,9 mM^-1 · sec^-1"}
    ]},
    {"molecule": "CNC(=O)CN(CCN(CCN(CC(=O)[O-])CC(=O)NC)CC(=O)[O-])CC(=O)[O-].[Gd+3]", "note": "[Omniscan®]", "values": [
      {"measurement": "T^1-Relaxivity", "setting": "[6]", "result": "3,5 - 4,9 mM^-1 · sec^-1"}
    ]},
    {"molecule": "CC(O)CN1CCN(CC(=O)[O-])CCN(CC(=O)[O-])CCN(CC(=O)[O-])CC1.[Gd+3]", "note": "(centres unmarked) [Pro Hance®]", "values": [
      {"measurement": "T^1-Relaxivity", "setting": "[6]", "result": "3,5 - 4,9 mM^-1 · sec^-1"}
    ]},
    {"molecule": "Dy-DTPA [reference compound]", "values": [
      {"measurement": "Prozentsatz der im Blutraum verbliebenen Dosis", "setting": "[7]; 30 sec p.i.", "result": 48, "unit": "%"},
      {"measurement": "Prozentsatz der im Blutraum verbliebenen Dosis", "setting": "[7]; 3 min p.i.", "result": 25, "unit": "%"},
      {"measurement": "Prozentsatz der im Blutraum verbliebenen Dosis", "setting": "[7]; 10 min p.i.", "result": 21, "unit": "%"},
      {"measurement": "Vss", "setting": "[4]", "result": 0.17, "unit": "L/kg"}
    ]},
    {"molecule": "Gadolinium-III-Komplex des 1,4,7,10-Tetracarboxymethyl-1,4,7,10-tetraazacyclododecans [Dotarem®]", "values": [
      {"measurement": "T^1-Relaxivity", "setting": "[6]", "result": "3,5 - 4,9 mM^-1 · sec^-1"}
    ]},
    {"molecule": "Verbindung 2: intravasales Kontrastmittel Eu-DTPA-Albumin", "values": [
      {"measurement": "Prozentsatz der im Blutraum verbliebenen Dosis", "setting": "[8]; 30 sec p.i.", "result": 100, "unit": "%"},
      {"measurement": "Prozentsatz der im Blutraum verbliebenen Dosis", "setting": "[8]; 3 min p.i.", "result": 100, "unit": "%"},
      {"measurement": "Prozentsatz der im Blutraum verbliebenen Dosis", "setting": "[8]; 10 min p.i.", "result": 100, "unit": "%"}
    ]}
  ]
}
